This note sets out measurements from patent US20050054006A1, “Combinatorial fluorescent library based on the styryl scaffold” (New York University, priority 2003, published 2005).

SMILES strings stand for the structures.

The nature of series [1]: Fluorescence excitation/emission of the styryl dye library compounds. It counts as physicochemical.
Series [2] concerns UACC-62 human melanoma cells. Kind of series: Organelle localization in live cells by fluorescence microscopy. Conditions: live UACC-62 cells, fluorescence microscope λex=405, 490, 570 nm; λem>510 nm.

`COc1ccc2c(ccc(C=Cc3ccc4c(c3)Cc3ccccc3-4)[n+]2C)c1.[I-]` [Compound I28]: in series [1] (EX/EM peak no. 1), the “EM(nm)” value is listed as 660 nm and the “EX(nm)” value is 450(broad) nm. Besides, the LOCALIZATION result in series [2] is recorded as “NUCLEOLI”.

For the molecule `COc1ccc2c(ccc(C=Cc3ccc(F)cc3)[n+]2C)c1.[I-]` [Compound I30], the “EM(nm)” value in series [1] (EX/EM peak no. 1) was 630 nm. Also, in series [2], the LOCALIZATION entry is reported as “MITO”.

For `COc1ccc2c(ccc(C=Cc3c(F)c(F)c(F)c(F)c3F)[n+]2C)c1.[I-]` [Compound I31], in series [1] (EX/EM peak no. 1), the “EM(nm)” value stood at 610 nm and the “EX(nm)” value turned out to be 380 nm. Also, in series [2], the LOCALIZATION result was “MITO and NUCLEI and CYTO”.

With `COc1ccc2c(ccc(C=Cc3cccc4ccccc34)[n+]2C)c1.[I-]` [Compound I32], in series [1] (EX/EM peak no. 1), the “EM(nm)” value was 610 nm and the “EX(nm)” value is reported as 360-440 nm. In series [2], the LOCALIZATION result was “MITO and NUCLEI and NUCLEOLI”.

Turning to `COc1ccc2c(ccc(/C=C/c3ccc4ccccc4c3)[n+]2C)c1.[I-]` [Compound I33], in series [1] (EX/EM peak no. 1), the “EM(nm)” value came to 640 nm and the “EX(nm)” value was determined as 420 nm. Also, in series [1] (EX/EM peak no. 2), the “EM(nm)” value stood at 560 nm and the “EX(nm)” value is reported as 320-460 nm. In addition, the LOCALIZATION result in series [2] was “VESICLE and MITO and NUCLEI”.

Take `COc1ccc2c(ccc(C=CC=Cc3ccccc3)[n+]2C)c1.[I-]` [Compound I35]: in series [1] (EX/EM peak no. 1), the “EM(nm)” value was 580 nm and the “EX(nm)” value is recorded as 320-360 nm. Moreover, in series [2], the LOCALIZATION entry was “CYTO”.

As for `COc1ccc2c(ccc(C=CC=Cc3ccc(N(C)C)cc3)[n+]2C)c1.[I-]` [Compound I37], in series [1] (EX/EM peak no. 1), the “EM(nm)” value stood at 730 nm and the “EX(nm)” value is reported as 530 nm. Moreover, the LOCALIZATION result in series [2] is “CYTO”.

For `COc1ccc2c(ccc(C=Cc3cc(OC)c(OC)cc3OC)[n+]2C)c1.[I-]` [Compound I38], in series [1] (EX/EM peak no. 1), the “EM(nm)” value amounted to 620 nm and the “EX(nm)” value is on record as 390 nm. Moreover, the LOCALIZATION entry in series [2] is reported as “CYTO”.

`Cc1ccnc(-c2cc(/C=C/Cc3ccccc3)cc[n+]2C)c1.[I-]` [Compound J1]: in series [1] (EX/EM peak no. 1), the “EM(nm)” value was 620 nm and the “EX(nm)” value was 450 nm. The LOCALIZATION result in series [2] is “MITO”.

Regarding `Cc1ccnc(-c2cc(/C=C/c3ccccc3Br)cc[n+]2C)c1.[I-]` [Compound J3], in series [1] (EX/EM peak no. 1), the “EM(nm)” value was determined as 620 nm and the “EX(nm)” value is 450 nm. In addition, in series [2], the LOCALIZATION entry is reported as “MITO”.

For the molecule `COc1ccccc1C=Cc1cc[n+](C)c(-c2cc(C)ccn2)c1.[I-]` [Compound J9], in series [1] (EX/EM peak no. 1), the “EM(nm)” value was determined as 520 nm and the “EX(nm)” value is recorded as 420(broad) nm. Besides, the LOCALIZATION result in series [2] is recorded as “MITO”.

For the molecule `COc1ccc(C=Cc2cc[n+](C)c(-c3cc(C)ccn3)c2)cc1.[I-]` [Compound J10], in series [1] (EX/EM peak no. 1), the “EM(nm)” value is 520 nm and the “EX(nm)” value was 350-450 nm. Besides, the LOCALIZATION entry in series [2] was “MITO”.

As to `Cc1ccnc(-c2cc(C=Cc3ccc(OCc4ccccc4)c(OCc4ccccc4)c3)cc[n+]2C)c1.[I-]` [Compound J12], in series [1] (EX/EM peak no. 1), the “EM(nm)” value is 560 nm and the “EX(nm)” value is recorded as 350-470 nm. For the same molecule, the LOCALIZATION result in series [2] is on record as “VESICLE”.

Take `COc1ccc(C=Cc2cc[n+](C)c(-c3cc(C)ccn3)c2)cc1O.[I-]` [Compound J15]: in series [1] (EX/EM peak no. 1), the “EM(nm)” value is 530 nm and the “EX(nm)” value was 340-440 nm. Further, the LOCALIZATION result in series [2] is reported as “VESICLE”.

As to `Cc1ccnc(-c2cc(/C=C/c3ccc(N(C)C)cc3)cc[n+]2C)c1.[I-]` [Compound J19], in series [1] (EX/EM peak no. 1), the “EM(nm)” value was determined as 640 nm and the “EX(nm)” value was determined as 480 nm. Further, the LOCALIZATION result in series [2] is recorded as “MITO”.

Regarding `Cc1ccnc(-c2cc(C=Cc3ccccc3[N+](=O)[O-])cc[n+]2C)c1.[I-]` [Compound J20], in series [1] (EX/EM peak no. 1), the “EM(nm)” value stood at 620 nm and the “EX(nm)” value came out at 420 nm. For the same molecule, in series [2], the LOCALIZATION entry was “VESICLE”.

Consider `Cc1ccnc(-c2cc(C=Cc3c(F)c(F)c(F)c(F)c3F)cc[n+]2C)c1.[I-]` [Compound J31], for which, in series [1] (EX/EM peak no. 1), the “EM(nm)” value stood at 520 nm. The LOCALIZATION result in series [2] is on record as “MITO”.

For `Cc1ccnc(-c2cc(/C=C/c3cccc4ccccc34)cc[n+]2C)c1.[I-]` [Compound J32], in series [1] (EX/EM peak no. 1), the “EM(nm)” value is on record as 530 nm and the “EX(nm)” value is on record as 350-450 nm. Besides, the LOCALIZATION result in series [2] is “MITO”.

Turning to `Cc1ccnc(-c2cc(C=Cc3ccc4ccccc4c3)cc[n+]2C)c1.[I-]` [Compound J33], in series [1] (EX/EM peak no. 1), the “EM(nm)” value came to 520 nm and the “EX(nm)” value is on record as 320-450 nm. In addition, in series [2], the LOCALIZATION result is “MITO”.

Take `Cc1ccnc(-c2cc(C=CC=Cc3ccccc3)cc[n+]2C)c1.[I-]` [Compound J35]: in series [1] (EX/EM peak no. 1), the “EM(nm)” value worked out at 580 nm and the “EX(nm)” value is on record as 340-420 nm. The LOCALIZATION result in series [2] was “CYTO”.

In the case of `COc1cc(OC)c(OC)cc1C=Cc1cc[n+](C)c(-c2cc(C)ccn2)c1.[I-]` [Compound J38], in series [1] (EX/EM peak no. 1), the “EM(nm)” value was determined as 590 nm and the “EX(nm)” value is reported as 380-500 nm. For the same molecule, in series [2], the LOCALIZATION result was “MITO”.

Regarding `Cc1ccnc(-c2cc(C=Cc3ccc4c(c3)OCO4)cc[n+]2C)c1.[I-]` [Compound J39], in series [1] (EX/EM peak no. 1), the “EM(nm)” value is listed as 560 nm and the “EX(nm)” value is given as 350-450 nm. Moreover, in series [2], the LOCALIZATION entry is reported as “MITO”.

Regarding `COc1ccc(C=Cc2cccc(C)[n+]2C)cc1.[I-]` [Compound L10], in series [1] (EX/EM peak no. 1), the “EM(nm)” value is 510 nm and the “EX(nm)” value was determined as 420 nm. Besides, the LOCALIZATION entry in series [2] was “MITO”.

For `Cc1cccc(/C=C/c2ccc(N(C)C)cc2)[n+]1C.[I-]` [Compound L19], in series [1] (EX/EM peak no. 1), the “EM(nm)” value came out at 580 nm and the “EX(nm)” value is recorded as 450 nm. In addition, the LOCALIZATION result in series [2] is on record as “MITO”.

On to `COc1ccc2ccccc2c1C=Cc1cccc(C)[n+]1C.[I-]` [Compound L23], for which, in series [1] (EX/EM peak no. 1), the “EM(nm)” value amounted to 570 nm and the “EX(nm)” value is reported as 420 nm. Further, the LOCALIZATION result in series [2] is “CYTO”.

Consider `Cc1cccc(C=Cc2cccc3ccccc23)[n+]1C.[I-]` [Compound L32], for which, in series [1] (EX/EM peak no. 1), the “EM(nm)” value came to 520 nm and the “EX(nm)” value is reported as 400(broad) nm. In addition, the LOCALIZATION result in series [2] is recorded as “MITO”.

`Cc1cccc(C=Cc2ccc3ccccc3c2)[n+]1C.[I-]` [Compound L33]: in series [1] (EX/EM peak no. 1), the “EM(nm)” value was 500 nm and the “EX(nm)” value is 360-470 nm. Besides, the LOCALIZATION result in series [2] is “MITO”.

`Cc1cccc(C=CC=Cc2ccccc2)[n+]1C.[I-]` [Compound L35]: in series [1] (EX/EM peak no. 1), the “EM(nm)” value is 510 nm and the “EX(nm)” value was found to be 420 nm. In series [2], the LOCALIZATION result is “MITO”.
